Source: PubChem BioAssay (NCI)
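A five-concentration, 48-hour dose response in 96-well plates underlies each endpoint, interpolated linearly between surrounding concentrations. Here, GI50 denotes the concentration required for 50% inhibition of growth. TGI marks complete inhibition of growth.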

Tests used:
Assay in all cases: DTP human tumour cell line panel, 48 h
[1] = system: SNB-19 CNS
[2] = system: SNB-75 CNS
[3] = system: HS 578T breast
[4] = system: HL-60(TB) leukemia
[5] = system: RPMI-8226 leukemia
[6] = system: HOP-92 NSCLC
[7] = system: 786-0 renal
[8] = system: TK-10 renal
[9] = system: MDA-MB-435
[10] = system: ACHN renal

| Compound | GI50 [1] | TGI [1] | GI50 [2] | TGI [2] | GI50 [3] | TGI [3] | GI50 [4] | TGI [4] | GI50 [5] | TGI [5] | GI50 [6] | TGI [6] | GI50 [7] | TGI [7] | GI50 [8] | TGI [8] | GI50 [9] | TGI [9] | GI50 [10] | TGI [10] |
| --- | --- | --- | --- | --- | --- | --- | --- | --- | --- | --- | --- | --- | --- | --- | --- | --- | --- | --- | --- | --- |
| c1ccc(Cn2cc3c(c2)-c2oncc2CC3)cc1 | 1.27 µM | > 100 µM | 1.11 µM | 27 µM | 0.887 µM | 10.7 µM | 0.274 µM | 0.939 µM | 0.285 µM | 2.38 µM | 7.64 µM | > 91.4 µM | 1.86 µM | > 30.8 µM | 2.98 µM | > 71.5 µM | 0.311 µM | > 100 µM | 7.74 µM | > 100 µM |
| CN(C)CCCNC(=O)c1cc2c3ccccc3[nH]c2c2ncccc12 | 17.4 µM | 85.3 µM | 13 µM | 33.8 µM | 14.5 µM | 38.3 µM | 16 µM | 41.7 µM | 7.42 µM | 32.8 µM | 14.2 µM | 57.3 µM | 11.7 µM | 42.4 µM | 15.5 µM | > 100 µM | 11.1 µM | 23.4 µM | 5.23 µM | 68.2 µM |
| CC1=CC(=O)c2cccc(NC3=NCCO3)c21 | – | > 100 µM | – | > 100 µM | – | > 100 µM | – | 41.2 µM | – | > 100 µM | – | 77.7 µM | – | > 100 µM | – | > 100 µM | – | 86.2 µM | – | > 100 µM |
| CC(=O)OC1CCC2(C)C(CCC3C2CCC2(C)C(C4=CC(=O)OC4)CCC32)C1 (centres undefined) | 8.49 µM | 38.4 µM | 11.6 µM | 30.2 µM | 4.68 µM | 32.1 µM | 7.9 µM | 30.7 µM | 0.928 µM | 3.03 µM | 2.93 µM | 22.6 µM | 15.6 µM | 39.7 µM | 5.53 µM | 22.9 µM | 4.2 µM | 33.5 µM | 12.3 µM | 38.9 µM |
| Cc1nc2ccccc2c(=O)n1NC(=O)Cc1ccccc1 | – | > 100 µM | – | > 100 µM | – | > 100 µM | – | > 100 µM | – | > 100 µM | – | > 100 µM | – | > 100 µM | – | > 100 µM | – | > 100 µM | – | > 100 µM |
| COc1cc(C2c3cc4c(cc3C3OC(=O)C2C3CO)OCO4)cc(OC)c1OC (centres undefined) | – | > 100 µM | 0.0415 µM | > 100 µM | 0.043 µM | > 100 µM | 0.0207 µM | 0.0748 µM | 0.0282 µM | > 100 µM | < 0.0108 µM | 0.0869 µM | 0.0437 µM | > 100 µM | 0.0535 µM | > 100 µM | 0.01 µM | 0.0374 µM | 0.0344 µM | > 100 µM |
| COc1cc(C/C=C/c2ccccc2)c(OC)cc1O | – | > 100 µM | – | 77.6 µM | – | 90 µM | – | 59.9 µM | – | 30.5 µM | – | 33 µM | – | 27.7 µM | – | 38.6 µM | – | 36.9 µM | – | 52.7 µM |
| c1ccc(-c2n(Cc3ccc4ccccc4n3)c3ccccc3[n+]2Cc2ccc3ccccc3n2)cc1 | 0.277 µM | 1.31 µM | 0.229 µM | 0.937 µM | 0.391 µM | 2.28 µM | 0.151 µM | 0.62 µM | 0.0936 µM | 0.845 µM | 0.143 µM | 0.563 µM | 1.03 µM | 2.33 µM | 0.426 µM | 1.91 µM | 0.337 µM | 1.22 µM | 1.41 µM | 3.01 µM |
| CCN(CC)c1ccc(/C=C/C(=O)c2cccc(NS(C)(=O)=O)c2)cc1 | 86 µM | > 100 µM | 10.6 µM | > 100 µM | 19.3 µM | > 100 µM | 20 µM | > 100 µM | 2.34 µM | 20.8 µM | 14 µM | 71.1 µM | 4.98 µM | > 100 µM | 7.53 µM | > 100 µM | 3.29 µM | > 100 µM | 6.2 µM | > 100 µM |
| COC(=O)[C@]12CC[C@@H](C)[C@H](C)[C@@H]1C1=CC[C@@H]3[C@@]4(C)C(c5ncon5)=C[C@@](C)(CO)C4=CC[C@@]3(C)[C@]1(C)CC2 | 2.84 µM | 11.6 µM | 1.62 µM | 4.33 µM | 2.52 µM | 8.03 µM | 2.13 µM | 5.04 µM | 2.32 µM | 6.33 µM | 1.98 µM | 4.04 µM | 2.91 µM | 8.58 µM | 2.17 µM | 5.36 µM | 1.72 µM | 3.36 µM | 1.9 µM | 3.56 µM |
| CCOC(=O)Nc1nc2c(F)c(F)c(F)cc2s1 | > 100 µM | > 100 µM | 23.4 µM | 94.4 µM | 27.4 µM | > 100 µM | > 100 µM | > 100 µM | > 100 µM | > 100 µM | 15.4 µM | 97.5 µM | 84.3 µM | > 100 µM | > 100 µM | > 100 µM | > 100 µM | > 100 µM | > 100 µM | > 100 µM |
